Measured values: patent US10925856B2, “Methods and compositions involving bucindolol for the treatment of atrial fibrillation” (priority 2018, dated 2021)
Where two headings read alike, the source gives them in different places.

How the values were obtained:
[1] = test system: advanced HFrEF patients (ADRB1 Arg389Gly / ADRA2C Ins322-325Del genotypes); conditions: cited from earlier work
[2] = target: human β1-adrenergic receptor (Homo sapiens, UniProt P08588); conditions: cited from earlier work
[3] = test system: advanced HFrEF patients (ADRB1 Arg389Gly / ADRA2C Ins322-325Del genotypes); test: BEST trial and DNA (pharmacogenetic) substudy: bucindolol vs. placebo; type: in vivo, human
Text: The relationship of the ADRA2C Ins/Del polymorphism to systemic NE levels and clinical outcomes was investigated as part of the BEST trial AR polymorphism substudy.
Variables identified in the GENETIC-AF Statistical Analysis Plan (SAP) that were potential predictors of the primary endpoint were investigated by precision therapeutic phenotyping. Hypothesis-based (e.g., AF duration, AF type, LVEF, NYHA Class, NT-proBNP, norepinephrine) and hypothesis-free (e.g. HF duration, initial study dose) elements were included in the multivariate methodology, which was applied to both obvious and non-obvious data to identify a therapeutic phenotype appropriate for investigating in Phase 3. To examine the relationship between HF duration and bucindolol effectiveness for reducing HF events, we analyzed data from the BEST trial (14) and pharmacogenetic substudy (17) for the endpoint of time to all-cause mortality or first HF hospitalization (ACM/HFH).

[4] = BEST, {ADRA2C Del carrier and ADRB1 Arg389Arg}
[5] = BEST, {ADRA2C Del carriers and ADRB1 389Gly carriers}
[6] = BEST ADRB1 389Gly Carriers n = 482
[7] = BEST ADRB1 Arg389Arg, free of AF at randomization
[8] = BEST ADRB1 Arg389Arg, free of AF at randomization, bucindolol vs placebo
[9] = BEST DNA substudy all genotypes n = 1040

human β1-adrenergic receptor, sequence (P08588 whole entry): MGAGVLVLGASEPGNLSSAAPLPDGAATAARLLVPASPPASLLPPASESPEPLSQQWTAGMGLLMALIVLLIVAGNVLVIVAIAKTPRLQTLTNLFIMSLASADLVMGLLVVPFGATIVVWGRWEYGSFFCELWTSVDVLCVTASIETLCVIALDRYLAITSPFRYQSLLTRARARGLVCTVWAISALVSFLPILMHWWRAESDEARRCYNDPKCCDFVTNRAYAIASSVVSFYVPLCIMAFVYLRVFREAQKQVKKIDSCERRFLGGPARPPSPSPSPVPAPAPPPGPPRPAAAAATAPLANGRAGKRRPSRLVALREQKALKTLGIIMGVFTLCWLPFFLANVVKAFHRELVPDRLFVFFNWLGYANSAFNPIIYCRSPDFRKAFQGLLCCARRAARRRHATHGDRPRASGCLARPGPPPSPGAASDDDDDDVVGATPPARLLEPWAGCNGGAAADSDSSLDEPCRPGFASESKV

SMILES: CC(C)(Cc1c[nH]c2ccccc12)NCC(O)COc1ccccc1C#N (stereo not shown) [bucindolol, 2-(3-(1-(1H-indol-3-yl)-2-methylpropan-2-ylamino)-2-hydroxypropoxy)benzonitrile]
- Reduction in NE ([1]; BEST trial at 12 weeks): 75 pg/mL
- Decrease in NE (sympatholysis) ([1]; BEST, ADRA2C Del genotypes): 153 pg/mL
- Decrease in NE (sympatholysis) ([1]; BEST, ADRA2C Ins homozygotes): 50 pg/mL
- Effect sizes, time to ACM or HF hospitalization and CV mortality or CV hospitalization ([1]; BEST, ADRB1 Arg389Arg subset in permanent AF): exceeding 70%
- Reduction in the development (risk) of AF vs. placebo ([1]; BEST, ADRB1 Arg389Arg, sinus rhythm at baseline): 74%
- Reduction in NE ([1]; BEST, {ADRA2C Del carrier and ADRB1 Arg389Arg} combination genotype): 120 pg/mL
- Hazard ratio, ACM, bucindolol vs. placebo [1, 4]: 0.50
- Hazard ratio, CVM, bucindolol vs. placebo [1, 4]: 0.40
- Hazard ratio, heart failure hospitalization burden, bucindolol vs. placebo [1, 4]: 0.60
- Hazard ratio, ACM, bucindolol vs. placebo [1, 5]: 1.04
- Hazard ratio, CVM, bucindolol vs. placebo [1, 5]: 1.11
- Hazard ratio, heart failure hospitalization burden, bucindolol vs. placebo [1, 5]: 1.19
- KD (KA in the occupancy formula), dissociation constant for human β1-ARs [2]: 3.6 nM
- Events/patients (rate), time to AF/AFL/ACM [3, 6]: (26.8%)
- Events/patients, time to AF/AFL/ACM [3, 6]: 61/228
- Hazard Ratio (95% C.I.), time to AF/AFL/ACM ([3]; BEST ADRB1 389Gly Carriers, bucindolol vs placebo): 0.95
- Events/patients (rate), time to AF/AFL/ACM ([3]; BEST ADRB1 Arg389Arg n = 435): (18.5%)
- Events/patients, time to AF/AFL/ACM ([3]; BEST ADRB1 Arg389Arg n = 435): 43/232
- ACM events [3, 7]: 33
- ACM events/pt (%) [3, 7]: 14.0%
- ACM/CVH events [3, 7]: 106
- ACM/CVH events/pt (%) [3, 7]: 45.1%
- ACM/HFH events [3, 7]: 82
- ACM/HFH events/pt (%) [3, 7]: 34.9%
- CVH events [3, 7]: 88
- CVH events/pt (%) [3, 7]: 37.5%
- CVM events [3, 7]: 25
- CVM events/pt (%) [3, 7]: 10.6%
- CVM/HFH events [3, 7]: 76
- CVM/HFH events/pt (%) [3, 7]: 32.3%
- HFH events [3, 7]: 65
- HFH events/pt (%) [3, 7]: 27.7%
- ACM HzR [3, 8]: 0.61
- ACM/CVH HzR [3, 8]: 0.72
- ACM/HFH HzR [3, 8]: 0.69
- CVH HzR [3, 8]: 0.69
- CVM HzR [3, 8]: 0.54
- CVM/HFH HzR [3, 8]: 0.66
- HFH HzR [3, 8]: 0.70
- Hazard Ratio (95% C.I.), time to AF/AFL/ACM ([3]; BEST ADRB1 Arg389Arg, bucindolol vs placebo): 0.49
- Events/patients (rate), time to AF/AFL/ACM [3, 9]: (22.6%)
- Events/patients, time to AF/AFL/ACM [3, 9]: 104/460
- Hazard Ratio (95% C.I.), time to AF/AFL/ACM ([3]; BEST DNA substudy all genotypes, bucindolol vs placebo): 0.70
- Events/patients (rate), time to AF/AFL/ACM ([3]; BEST Entire Cohort n = 2708): (33.6%)
- Events/patients, time to AF/AFL/ACM ([3]; BEST Entire Cohort n = 2708): 401/1193
- Hazard Ratio (95% C.I.), time to AF/AFL/ACM ([3]; BEST Entire Cohort, bucindolol vs placebo): 0.80
